The experiment has as its system ULK kinase substrate ATG13 (pS318-ATG13) in MiaPaCa-2 cells. As to the kind of experiment: pATG13 levels of mutant KRas MiaPaCa-2 cells after treatment with ULK inhibitors in combination with trametinib (ELISA). The class given is cell-based, human. As to the method: pATG13 Levels of Mutant KRas MiaPaCa-2 Cells after Treatment with ULK Inhibitors in Combination with Trametinib
MiaPaCa-2 human pancreatic cancer cells (10000 cells/well) were added to a 384-well tissue-culture treated plate in 50 μL of pre-warmed DMEM medium supplemented with 10% characterized fetal bovine serum (Invitrogen, Carlsbad, CA), 100 units/mL penicillin G, 100 μg/mL streptomycin, and 2.5% Horse Serum and allowed to grow overnight at 37° C., 5% CO2, and 95% humidity. The following day, 10 μL of media containing trametinib or DMSO as a control was added to wells. The final concentration of trametinib in wells was 250 nM. A dose response of a test compound (0.6 μL per well) was added. DMSO (0.6 μL) was added to control wells. The plate was briefly shaken to mix wells and then incubated at 37° C. overnight. The next day, the media was aspirated and cells were washed with Dulbecco's Phosphate Buffered Saline (Gibco). Cells were lysed using MPER lysis buffer (Pierce, Rockford, IL) containing Halt Phosphatase and Protease Inhibitors (Pierce, Rockford, IL) and Phosphatase inhibitor cocktail 2 (Sigma, St. Louis, MO) at 4° C. for 10 minutes with shaking.
Cellular levels of phospho-Serine 318 ATG13 (pATG13) were measured via an ELISA method. Total ATG13 Antibody (Cell Signaling Cat #13273) was used to coat the wells. The plate was incubated at 4° C. overnight and washed with ELISA wash buffer (Biolegend Cat #421601). The wells were then blocked with assay diluent (Biolegend Cat #421203) for 1 h at rt. Plate wells were washed with ELISA wash buffer. Cell lysate was added to wells and incubated at rt for 2 h. Plate wells were washed with ELISA wash buffer. Biotinylated pS318-ATG13 antibody (Rockland Immunochemicals Cat #600-401-C49) was diluted in assay diluent and added to each well and incubated at rt for 1 h. Plate wells were washed with ELISA wash buffer. Streptavidin linked to horseradish peroxidase (Thermo Fisher Cat #21140) was diluted in assay diluent and added to each well and incubated at rt for 1 h. Plate wells were washed with ELISA wash buffer. High sensitivity TMB substrate (Biolegend Cat #421101) was added to each well and incubated at rt for 20 min. The reaction was stopped with 2.0N sulfuric acid. The plate was analyzed at on a plate reader measuring absorbance at 450 nm and 540 nm (background). Signal was calculated by first subtracting the background absorbance at 540 nm from the absorbance at 450 nm for each well. Next, the background corrected absorbance at 450 nm from blank wells was subtracted from test wells. Data was compared to control wells to determine % ATG13 phosphorylation. GraphPad Prism was used to calculate IC50 values.

With `CC/C(Nc1cnn(C2CCN(C(C)C)CC2)c1)=C1/C(=O)Nc2ccc(C(=O)NCC3CCC(C4CC4)O3)cc21` (stereo not shown) [Example 3, (Z)—N-((5-cyclopropyltetrahydrofuran-2-yl)methyl)-3-(1-((1-(1-isopropylpiperidin-4-yl)-1H-pyrazol-4-yl)amino)propylidene)-2-oxoindoline-5-carboxamide], the IC50 is 100 to 300 nM.

Take `CC/C(Nc1cnn(C(C)C)c1)=C1/C(=O)Nc2ccc(C(=O)NCC3(C)COC3)cc21` [Example 5, (Z)-3-(1-((1-isopropyl-1H-pyrazol-4-yl)amino)propylidene)-N-((3-methyloxetan-3-yl)methyl)-2-oxoindoline-5-carboxamide]: the IC50 fell in the range of 100 to 300 nM.

For the compound `CC/C(Nc1cnn(C2CCN(C(C)C)CC2)c1)=C1/C(=O)Nc2ccc(C(=O)N(C)CC(F)(F)F)cc21` [Example 7], the IC50 is no more than 100 nM.

Take `CC/C(Nc1cnn(C2CCN(C(C)C)CC2)c1)=C1/C(=O)Nc2ccc(C(=O)N(C)CCOC)cc21` [Example 9]: the IC50 lay within 100 to 300 nM.

Take `CC/C(Nc1cnn(C2CCN(C(C)C)CC2)c1)=C1/C(=O)Nc2ccc(C(=O)NCC(C)C)cc21` [Example 16]: the IC50 was no more than 100 nM.

Turning to `CC/C(Nc1cnn(C2CCN(C(C)C)CC2)c1)=C1/C(=O)Nc2ccc(C(=O)NCC3CCO3)cc21` (stereo not shown) [Example 21], the IC50 is no more than 100 nM.

With `CC/C(Nc1cnn(C2CCN(C(C)C)CC2)c1)=C1/C(=O)Nc2ccc(C(=O)NCC(C)(C)OC)cc21` [Example 27], the IC50 was no more than 100 nM.

As for `CC/C(Nc1cnn(C2CCN(C(C)C)CC2)c1)=C1/C(=O)Nc2ccc(C(=O)NCC(C)(C)O)cc21` [Example 28], the IC50 was no more than 100 nM.

As to `CC/C(Nc1cnn(C2CCN(C(C)C)CC2)c1)=C1/C(=O)Nc2ccc(C(=O)NC3CC(F)(F)C3)cc21` [Example 29], the half-maximal inhibitory concentration (IC50) is no more than 100 nM.

Regarding `CC/C(Nc1cnn(C2CCN(C(C)C)CC2)c1)=C1/C(=O)Nc2ccc(C(=O)NCC3CC(F)(F)C3)cc21` [Example 30], the IC50 was no more than 100 nM.

Regarding `CC/C(Nc1cnn(C2CCN(C(C)C)CC2)c1)=C1/C(=O)Nc2ccc(C(=O)NCC3CC3)cc21` [Example 42], the IC50 is no more than 100 nM.

On to `CC/C(Nc1cnn(C2CCN(C(C)C)CC2)c1)=C1/C(=O)Nc2ccc(C(=O)NCC3CCCC3)cc21` [Example 44], for which the IC50 is no more than 100 nM.

Take `CC/C(Nc1cnn(C2CCN(C)CC2)c1)=C1/C(=O)Nc2ccc(C(=O)NC[C@H]3CCCO3)cc21` [Example 51]: the IC50 was no more than 100 nM.

For the compound `CC/C(Nc1cnn(C2CC3CCC(C2)N3C)c1)=C1/C(=O)Nc2ccc(C(=O)NC[C@H]3CCCO3)cc21` (stereo partly shown) [Example 53], the IC50 was no more than 100 nM.

Consider `CC/C(Nc1ccc(N2CC3CC(C2)N3C)cc1)=C1/C(=O)Nc2ccc(C(=O)NCC(F)(F)F)cc21` [Example 60], for which the IC50 was no more than 100 nM.

On to `CC/C(Nc1ccc(N2C[C@H]3CN(C)C[C@H]3C2)cc1)=C1/C(=O)Nc2ccc(C(=O)NCC(F)(F)F)cc21` [Example 61], for which the IC50 is no more than 100 nM.

In the case of `CC/C(Nc1ccc(N2CCN(C(C)C)CC2)cc1)=C1/C(=O)Nc2cc(F)c(C(=O)NCC(F)(F)F)cc21` [Example 100], the IC50 was in the range of 100 to 300 nM.

Turning to `C/C(Nc1cnn(C(C)C)c1)=C1/C(=O)Nc2ccc(C(=O)NCC(F)(F)F)cc21` [Example 101], the IC50 was no more than 100 nM.

As for `CC/C(Nc1cnn(CCOC)c1)=C1/C(=O)Nc2ccc(C(=O)NCC(F)(F)F)cc21` [Example 102], the half-maximal inhibitory concentration (IC50) is no more than 100 nM.

With `CC/C(Nc1cnn(CCN(C)C)c1)=C1/C(=O)Nc2ccc(C(=O)NCC(F)(F)F)cc21` [Example 103], the IC50 is no more than 100 nM.

In the case of `CC/C(Nc1cnn([C@@H]2CCOC2)c1)=C1/C(=O)Nc2ccc(C(=O)NCC(F)(F)F)cc21` [Example 105], the IC50 is no more than 100 nM.

Take `CC/C(Nc1cnn(C2CCOCC2)c1)=C1/C(=O)Nc2ccc(C(=O)NCC(F)(F)F)cc21` [Example 106]: the IC50 was no more than 100 nM.

Take `CC/C(Nc1cn(C(C)C)nn1)=C1/C(=O)Nc2ccc(C(=O)NCC(F)(F)F)cc21` [Example 122]: the IC50 was in the range of 100 to 300 nM.

In the case of `CC/C(Nc1cccnc1)=C1/C(=O)Nc2ccc(C(=O)NCC(F)(F)F)cc21` [Example 124], the IC50 was 300 to 600 nM.

Regarding `CC/C(Nc1cnn(C(C)C)c1)=C1/C(=O)Nc2ccc(C(=O)NCCOC)cc21` [Example 126], the IC50 lay within 100 to 300 nM.

For the compound `CC/C(Nc1cnn(C(C)C)c1)=C1/C(=O)Nc2ccc(C(=O)NCCC#N)cc21` [Example 127], the concentration for half-maximal inhibition (IC50) lay within 100 to 300 nM.

Consider `CC/C(Nc1cnn(C(C)C)c1)=C1/C(=O)Nc2ccc(C(=O)NC[C@@H](C)OC)cc21` [Example 128], for which the IC50 was 300 to 600 nM.

Regarding `CC/C(Nc1cnn(C(C)C)c1)=C1/C(=O)Nc2ccc(C(=O)NCC3CC(F)(F)C3)cc21` [Example 134], the IC50 is no more than 100 nM.

Take `CC/C(Nc1cnn(C(C)C)c1)=C1/C(=O)Nc2ccc(C(=O)NCC3CCC4(CCC4)O3)cc21` (stereo not shown) [Example 138]: the IC50 was in the range of 300 to 600 nM.

Turning to `CC/C(Nc1cnn(C2CC(F)(F)C2)c1)=C1/C(=O)Nc2ccc(C(=O)NCC(F)(F)F)cc21` [Example 144], the IC50 was no more than 100 nM.

In the case of `CC/C(Nc1ccccn1)=C1/C(=O)Nc2ccc(C(=O)NCC(F)(F)F)cc21` [Example 145], the IC50 was 100 to 300 nM.

Consider `CC/C(Nc1cnn(C(F)F)c1)=C1/C(=O)Nc2ccc(C(=O)NCC(C)C)cc21` [Example 147], for which the IC50 was no more than 100 nM.

On to `CC/C(Nc1cnn(C(C)C)c1)=C1/C(=O)Nc2ccc(C(=O)NCC(C)(C)OC)cc21` [Example 148], for which the IC50 was 100 to 300 nM.

With `CC/C(Nc1cc(C(F)(F)F)ccn1)=C1/C(=O)Nc2ccc(C(=O)NCC(F)(F)F)cc21` [Example 149], the half-maximal inhibitory concentration (IC50) is 100 to 300 nM.

Consider `CC/C(Nc1cnn(CC)c1)=C1/C(=O)Nc2ccc(C(=O)NCC3(F)CC3)cc21` [Example 153], for which the IC50 was no more than 100 nM.

For the compound `CC/C(Nc1cnn(C(C)C)c1)=C1/C(=O)Nc2ccc(C(=O)NCC3(C#N)CC3)cc21` [Example 156], the IC50 was no more than 100 nM.

As for `CC/C(Nc1cnn(CC(C)OC)c1)=C1/C(=O)Nc2ccc(C(=O)NCC(F)(F)F)cc21` (stereo not shown) [Example 157], the IC50 was no more than 100 nM.

`CC/C(Nc1cnn(CC(C)OC)c1)=C1/C(=O)Nc2ccc(C(=O)NCC(F)(F)F)cc21` (stereo not shown) [Example 158]: the IC50 lay within 100 to 300 nM.

For `CC/C(Nc1cnn(C(C)CC)c1)=C1/C(=O)Nc2ccc(C(=O)NCC(F)(F)F)cc21` (stereo not shown) [Example 159], the IC50 is no more than 100 nM.

As to `CC/C(Nc1cnn(CC(F)(F)F)c1)=C1/C(=O)Nc2ccc(C(=O)NCC(C)(C)F)cc21` [Example 160], the IC50 was no more than 100 nM.

As to `CC/C(Nc1cnn(C(C)C)c1)=C1/C(=O)Nc2ccc(C(=O)NCCC(F)(F)F)cc21` [Example 166], the IC50 was no more than 100 nM.

As to `CC/C(Nc1cnn(C(C)C)c1)=C1/C(=O)Nc2ccc(C(=O)NCC3(C)CCOC3)cc21` (stereo not shown) [Example 168], the IC50 was 100 to 300 nM.

With `CC/C(Nc1cnn(C(F)(F)F)c1)=C1/C(=O)Nc2ccc(C(=O)NCC(C)C)cc21` [Example 169], the IC50 was 100 to 300 nM.

The record behind these values is patent publication US20240150368A1, “ULK INHIBITORS AND METHODS OF USE THEREOF” (Deciphera Pharmaceuticals, LLC, priority 2022, published 2024).
